Test results taken from patent US20120077837A1, “ANTI-TUMOR AGENT” (EISAI R&D MANAGEMENT CO., LTD., priority 2010, published 2012).

System: human renal cell carcinoma cell line (Caki-1)
Experiment: Tumor growth-inhibitory action by combined use of Compound A and everolimus in nude mice transplanted with Caki-1
Type: in vivo
Settings: subcutaneous Caki-1 xenograft, oral once per day, Compound A 10 mg/kg, everolimus 30 mg/kg
Description: Using 5 individuals per group of nude mice (CAnN.Cg-Foxn1nu/Cr1Cr1j, female, Charles River Japan, Inc.), the antitumor effect obtained when Compound A, everolimus or the both compounds was/were administered was evaluated. Human-derived renal cell carcinoma cell line Caki-1(ATCC) was added to a medium (RPMI-1640, Wako Pure Chemical Industries, Ltd.) to a density of 2×10^8 cells/mL and suspended therein. To the resulting suspension, an equal volume of Matrigel™ matrix (Nippon Becton Dickinson Co., Ltd.) was added, and the resulting mixture was mixed sufficiently. The mixture was subcutaneously transplanted at the left flank of each mouse in an amount of 0.1 mL.
Forty eight days after the transplantation, the major axis and the minor axis were measured using an electronic digital caliper (Digimatic™ caliper, Mitutoyo Corporation). The mice were separated into groups such that the average value of the tumor volume is almost the same among the groups. The volume of the tumor was calculated according to the equation below.
Tumor volume=major axis (mm)×minor axis (mm)×minor axis (mm)/2
Compound A was dissolved in purified water to a concentration of 1 mg/mL. Further, everolimus was suspended in a mixed solution of DMSO, Tween 80 and glucose (3.5:6.5:90 (V/V/V), hereinafter referred to as solvent) to a concentration of 3 mg/mL.
To the mice of each group, the Compound A solution and the solvent, the everolimus suspension and purified water, or the Compound A solution and the everolimus suspension were orally administered in an amount of 10 mL/kg once per day for 15 days. The doses of Compound A and everolimus were 10 mg/kg and 30 mg/kg, respectively. To the control group, 10 mL/kg each of purified water and the solvent was administered.
The tumor volume of each mouse was measured on Day 4, 7, 11 and 14 after the beginning of the administration. The ratio of the tumor volume observed on each day of the measurement relative to the tumor volume observed on the day when the administration was begun was calculated as the relative tumor volume (hereinafter referred to as RTV).

[1] = Day 4 after beginning of administration
[2] = Day 7 after beginning of administration
[3] = Day 11 after beginning of administration
[4] = Day 14 after beginning of administration

SMILES: COc1cc2nccc(Oc3ccc(NC(=O)NC4CC4)c(Cl)c3)c2cc1C(N)=O [Compound A, 4-[3-chloro-4-(cyclopropylaminocarbonyl)aminophenoxy]-7-methoxy-6-quinolinecarboxamide]
- relative tumor volume (RTV) [1]: 1.15
- relative tumor volume (RTV) [2]: 1.15
- relative tumor volume (RTV) [3]: 1.07
- relative tumor volume (RTV) [4]: 1.02

SMILES: COC1CC2CCC(C)C(O)(O2)C(=O)C(=O)N2CCCCC2C(=O)OC(C(C)CC2CCC(OCCO)C(OC)C2)CC(=O)C(C)/C=C(\C)C(O)C(OC)C(=O)C(C)CC(C)/C=C/C=C/C=C/1C (centres unmarked) [Everolimus, 42-O-(2-hydroxyethyl)-rapamycin]
- relative tumor volume (RTV) [1]: 1.03
- relative tumor volume (RTV) [2]: 0.97
- relative tumor volume (RTV) [3]: 0.95
- relative tumor volume (RTV) [4]: 0.92
